Data on 46 molecules can be found in patent US10532985B2, “Heterocycle and carbocycle derivatives having TRKA inhibitory activity” (Shionogi & Co., Ltd., priority 2014, dated 2020).

T1 sequence (P04629 33-796): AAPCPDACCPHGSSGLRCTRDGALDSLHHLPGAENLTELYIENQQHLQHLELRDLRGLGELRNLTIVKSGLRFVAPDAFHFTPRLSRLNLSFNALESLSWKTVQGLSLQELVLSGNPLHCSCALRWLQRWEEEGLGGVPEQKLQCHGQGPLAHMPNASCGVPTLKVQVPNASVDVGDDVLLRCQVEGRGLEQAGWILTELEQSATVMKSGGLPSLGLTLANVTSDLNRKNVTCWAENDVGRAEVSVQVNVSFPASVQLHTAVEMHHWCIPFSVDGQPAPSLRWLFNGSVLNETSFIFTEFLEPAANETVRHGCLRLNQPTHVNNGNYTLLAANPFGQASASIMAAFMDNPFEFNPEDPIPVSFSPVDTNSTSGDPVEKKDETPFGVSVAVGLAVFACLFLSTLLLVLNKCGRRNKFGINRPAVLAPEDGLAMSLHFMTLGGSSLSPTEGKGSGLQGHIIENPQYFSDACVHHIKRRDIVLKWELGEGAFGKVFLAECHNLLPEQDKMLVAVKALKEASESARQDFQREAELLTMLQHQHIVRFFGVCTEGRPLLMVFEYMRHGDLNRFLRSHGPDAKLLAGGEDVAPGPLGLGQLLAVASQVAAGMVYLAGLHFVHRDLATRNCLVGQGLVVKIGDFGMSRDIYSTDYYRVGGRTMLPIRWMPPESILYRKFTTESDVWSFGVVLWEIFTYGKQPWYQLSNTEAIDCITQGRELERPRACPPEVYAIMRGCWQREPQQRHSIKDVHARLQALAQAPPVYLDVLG

One test concerns the target T1, human TrkA (Homo sapiens, UniProt P04629).
T1 construct: purchased Lifetechnologies PV3144
Kind of test: Test Example 2-2: Human TrkA Inhibition Assay. The following applies: class symbols, read-out: IC50_nM. It is filed as biochemical. As to the method:
Seven point five μL per well of human TrkA (PV3144, Lifetechnologies, final concentration: 1 nmol/L) suspended in the assay buffer (100 mmol/L 4-(2-hydroxyethyl)-1-piperazineethanesulfonic acid (HEPES), 10 mmol/L magnesium chloride, 0.003 vol % Brij-35, 0.004 vol % Tween20 and 1 mmol/L dithiothreitol (DTT)) was applied in a 384 well plate and the plate was pre-incubated for 15 min at room temperature with 0.4 μL of each compound (final concentration: […]) dissolved in DMSO. Then, fluorescent substrate (FL-peptide 27, 760424, PerkinElmer, final concentration: 1.5 μmol/L) and ATP (final concentration […]) dissolved in the assay buffer was added in each well. After the incubation of 120 min at 37° C., fifteen μL of termination buffer (100 mmol/L HEPES, 40 mmol/L ethylenediaminetetraacetic acid (EDTA), 10 mmol/L magnesium chloride, 0.003 vol % Brij-35, 0.004 vol % Tween20, 1 mmol/L DTT and 0.16 vol % Coating Reagent 3) was added in each well to stop the enzyme reaction. Fluorescent intensities (FI) of phosphorylated and non-phosphorylated fluorescent substrates were measured by LabChip EZReader II (Caliper LifeSciences, Inc.), and conversion ratio (CR) was calculated by the following formula-1. The CR in the well applied with DMSO alone was used as a negative control and the CR in the well without applying TrkA was used as a positive control. The inhibitory effect of each compound on TrkA phosphorylation was calculated by the following formula-2. CR (%)=(FI of phosphorylated substrate/(FI of phosphorylated substrate+FI of non-phosphorylated substrate))×100 (Formula-1) Phosphorylation inhibition (%)=(1−(CR with compound treatment−CR of positive control)/(CR of negative control−CR of positive control))×100 (Formula-2) Inhibitory effect on TrkA phosphorylation (%)=(1−(CR in compound treated well−CR in positive control)/(CR in negative control−CR in positive control))×100.
The 50/o inhibitory concentration (IC50) was determined by the logistic regression using the inhibition data in 10 points at a range of 2 μmol/L to 0.1 nmol/L or 200 μmol/L to 10 nmol/L).
Regarding `COCC(O)C1C[C@@H](NC(=O)Nc2c(C)c(-c3cnn(C)c3)nn2-c2ccccc2)[C@H](c2ccccc2)C1` (stereo partly shown) [Compound I-271], the IC50 is 100 to 1000 nM.

Take `COCC[C@@H]1C[C@@H](NC(=O)Nc2c(C)c(OCC3CCN(C)CC3)nn2-c2ccccc2)[C@H](c2ccccc2)C1` [Compound I-272]: the IC50 is less than 100 nM.

Regarding `COCC[C@@H]1C[C@@H](NC(=O)Nc2c(C)c(-c3cnn(C)c3)nn2-c2ccccc2)[C@H](c2ccc(F)cc2)N1C` [Compound I-275], the IC50 was less than 100 nM.

Staying with this test, now noted: human TrkA 1 nmol/L, 120 min at 37° C., read-out: TrkA inhibition IC50.
`COCCN1C[C@@H](NC(=O)Nc2c(C)c(-c3cnn(C)c3)nn2-c2ccccc2)[C@H](C2=CCCCC2)C1` (racemic) [Compound I-218]: the IC50 was 270 nM.

On to `Cc1c(-c2cnn(C)c2)nn(-c2ccccc2)c1NC(=O)N[C@@H]1CN(CCOC2CC2)C[C@H]1c1ccc(F)c(F)c1` [Compound I-252], for which the IC50 came out at 3.6 nM.

`Cc1c(-c2cnn(C)c2)nn(-c2ccccc2)c1NC(=O)N[C@@H]1CN(CCOC2CC2)C[C@H]1c1ccnc(F)c1` (racemic) [Compound I-267]: the IC50 worked out at 24 nM.

As to `COCCN1C[C@@H](NC(=O)Nc2c(C)c(-c3cnn(C)c3)nn2-c2ccccc2)[C@H](c2ccc3nonc3c2)C1` (racemic) [Compound I-209], the IC50 came out at 10 nM.

For the molecule `Cc1c(-c2cnn(C)c2)nn(-c2ccccc2)c1NC(=O)N[C@@H]1CN(CCOC(F)F)C[C@H]1c1ccccc1` (racemic) [Compound I-248], the IC50 is 18 nM.

`COCC[C@@H]1C[C@@H](NC(=O)Nc2c(C)c(-c3cnc(C)nc3)nn2-c2ccccc2)[C@H](c2ccc(F)c(F)c2)N1` [Compound I-256]: the IC50 was found to be 8.2 nM.

As for `COCCC1C[C@@H](NC(=O)Nc2c3c(nn2-c2ccccc2)CCC3)[C@H](c2ccccc2)C1` (stereo partly shown) [Compound I-184], the IC50 turned out to be 47 nM.

Take `CC(=O)CN1C[C@@H](NC(=O)Nc2c(C)c(-c3cnn(C)c3)nn2-c2ccccc2)[C@H](c2ccc(F)c(F)c2)C1` [Compound I-185]: the IC50 amounted to 1500 nM.

As to `Cc1c(-c2cnn(C)c2)nn(-c2ccccc2)c1NC(=O)N[C@@H]1C[C@@H](Oc2ccncc2)C[C@H]1c1ccccc1` (racemic) [Compound I-225], the IC50 was found to be 120 nM.

Consider `COCC[C@@H]1C[C@@H](NC(=O)Nc2c(C)c(-c3cnn(C)c3)nn2-c2ccccc2)[C@H](c2ccccc2)[C@H]1C` [Compound I-241], for which the IC50 amounted to 0.9 nM.

In the case of `COCC[C@@H]1C[C@@H](NC(=O)Nc2c(C)c(-c3cnc(C)nc3)nn2-c2ccccc2)[C@H](c2ccc(F)c(F)c2)C1` [Compound I-254], the IC50 came to 0.73 nM.

The same test, now with this note: human TrkA inhibition, class symbols A/B/C, read-out: IC50_nM.
With `COCC[C@@H]1C[C@@H](NC(=O)Nc2c(C)c(-c3cnn(C)c3)nn2-c2ccccc2)[C@H](c2ccccc2)[C@H]1CO` [Compound I-226], the IC50 lay in the range of 100 to 1000 nM.

`COCCN1C[C@@H](NC(=O)Nc2c(C)c(-c3cnn(C)c3)nn2-c2ccccc2)[C@H](c2cccc(C=O)c2)C1` (racemic) [Compound I-230]: the IC50 lay within 100 to 1000 nM.

Consider `COCC[C@@H]1C[C@@H](NC(=O)Nc2c(C)c(C3=CCN(C(=O)OC(C)(C)C)CC3)nn2-c2ccccc2)[C@H](c2ccccc2)C1` [Compound I-265], for which the IC50 is less than 100 nM.

With `COCC[C@@H]1C[C@@H](NC(=O)Nc2c(C)c(C3=CCNCC3)nn2-c2ccccc2)[C@H](c2ccccc2)C1` [Compound I-266], the IC50 was less than 100 nM.

Turning to `COCC(O)[C@H]1C[C@@H](NC(=O)Nc2c(C)c(-c3cnn(C)c3)nn2-c2ccccc2)[C@H](c2ccc(F)c(F)c2)N1` (stereo partly shown) [Compound I-215], the IC50 was 100 to 1000 nM.

`COCCC1C[C@@H](NC(=O)Nc2cc(-c3ccc(C(=O)O)cc3)nn2C)[C@H](c2ccccc2)C1` (stereo partly shown) [Compound I-199]: the IC50 is greater than 1000 nM.

Take `COCCC1C[C@@H](NC(=O)Nc2c(C)c(-c3cnn(C)c3)nn2-c2ccccc2)[C@H](c2ccc(F)c(F)c2)N1Cc1ccccc1` (stereo partly shown) [Compound I-196]: the IC50 was greater than 1000 nM.

`CCO[C@@H]1C[C@@H](NC(=O)Nc2c(C)c(-c3cnn(C)c3)nn2-c2ccccc2)[C@H](c2ccccc2)C1` (racemic) [Compound I-211]: the IC50 was greater than 1000 nM.

As for `COCC[C@@H]1C[C@@H](NC(=O)Nc2c(C)c(-c3cnn(C)c3)nn2-c2ccccc2)[C@H](c2ccc(F)c(F)c2)N1` [Compound I-208], the IC50 is less than 100 nM.

In the case of `COCCC1C[C@@H](NC(=O)Nc2c(C)c(-c3cnn(C)c3)nn2-c2ccccc2)[C@H](c2ccc(O)cc2)C1` (stereo partly shown) [Compound I-222], the IC50 was less than 100 nM.

As to `Cc1ccc(CN2C[C@@H](NC(=O)Nc3c(C)c(-c4cnn(C)c4)nn3-c3ccccc3)[C@H](c3ccc(F)c(F)c3)C2)o1` [Compound I-193], the IC50 is less than 100 nM.

For `Cc1c(-c2cnn(C)c2)nn(-c2ccccc2)c1NC(=O)N[C@@H]1CN(Cc2ccc(C(=O)O)o2)C[C@H]1c1ccc(F)c(F)c1` [Compound I-188], the IC50 is greater than 1000 nM.

As to `CNC(=O)c1ccc(-c2cc(NC(=O)N[C@@H]3CC(CCOC)C[C@H]3c3ccccc3)n(C)n2)cc1` (stereo partly shown) [Compound I-200], the IC50 is greater than 1000 nM.

As to `COCCC1C[C@@H](NC(=O)Nc2c(C)c(-c3cnn(C)c3)nn2-c2ccccc2)[C@H](c2ccc(F)c(F)c2)N1CCOC` (stereo partly shown) [Compound I-197], the IC50 was greater than 1000 nM.

As to `COCCC1C[C@@H](NC(=O)Nc2cc(-c3ccccc3)nn2C)[C@H](c2ccccc2)N1` (stereo partly shown) [Compound I-216], the IC50 is 100 to 1000 nM.

Turning to `COCC[C@@H]1C[C@@H](NC(=O)Nc2c(C)c(-c3ccc(OC)nc3)nn2-c2ccccc2)[C@H](c2ccc(F)c(F)c2)N1` [Compound I-257], the IC50 is less than 100 nM.

As to `COCCC1C[C@@H](NC(=O)Nc2c(C)c(-c3cnn(C)c3)nn2-c2ccccc2)[C@H](c2ccc(F)c(F)c2)C1` (stereo partly shown) [Compound I-187], the IC50 is less than 100 nM.

Take `CCOc1nn(-c2ccccc2)c(NC(=O)N[C@@H]2CC(CCOC)C[C@H]2c2ccccc2)c1C` (stereo partly shown) [Compound I-183]: the IC50 was less than 100 nM.

For `COCCN1C[C@@H](NC(=O)Nc2c(C)c(-c3cnn(C)c3)nn2-c2ccccc2)[C@H](c2ccccc2)[C@H]1CF` [Compound I-251], the IC50 lay in the range of 100 to 1000 nM.

As to `COCC[C@@H]1C[C@@H](NC(=O)Nc2c(C)c(-c3cnn(C)c3)nn2-c2ccccc2)[C@H](c2ccccc2)N1` [Compound I-242], the IC50 fell in the range of 100 to 1000 nM.

With `Cc1c(-c2cnn(C)c2)nn(-c2ccccc2)c1NC(=O)N[C@@H]1CN(Cc2cc(Br)co2)C[C@H]1c1ccc(F)c(F)c1` [Compound I-189], the IC50 is less than 100 nM.

Take `Cc1c(-c2cnn(C)c2)nn(-c2ccccc2)c1NC(=O)N[C@@H]1CN(Cc2ccccn2)C[C@H]1c1ccc(F)c(F)c1` [Compound I-240]: the IC50 lay within 100 to 1000 nM.

Take `COCCC1C[C@@H](NC(=O)Nc2c(C)c(OCC(C)(C)O)nn2-c2ccccc2)[C@H](c2ccccc2)C1` (relative stereo) [Compound I-182]: the IC50 was in the range of 100 to 1000 nM.

Regarding `COCCN1C[C@@H](NC(=O)Nc2c(C)c(-c3cnn(C)c3)nn2-c2ccccc2)[C@H](c2ccnc(OC)c2)C1` (racemic) [Compound I-228], the IC50 fell in the range of 100 to 1000 nM.

With `COCC[C@@H]1C[C@@H](NC(=O)Nc2c(C)c(-c3ccnc(C)c3)nn2-c2ccccc2)[C@H](c2ccc(F)c(F)c2)N1C` [Compound I-235], the IC50 is less than 100 nM.

`Cc1cc(CN2C[C@@H](NC(=O)Nc3c(C)c(-c4cnn(C)c4)nn3-c3ccccc3)[C@H](c3ccc(F)c(F)c3)C2)oc1C` [Compound I-203]: the IC50 lay in the range of 100 to 1000 nM.

As to `COCCN1C[C@@H](NC(=O)Nc2c(C)c(-c3cnn(C)c3)nn2-c2ccccc2)[C@H](c2ccnc(C3=NC(=O)CS3)c2)C1` (racemic) [Compound I-195], the IC50 was greater than 1000 nM.

Regarding `COCCN1C[C@@H](NC(=O)Nc2c(C)c(-c3cnn(C)c3)nn2-c2ccccc2)[C@H](c2ccc3occc3c2)C1` (racemic) [Compound I-232], the IC50 was in the range of 100 to 1000 nM.

For `COCCC1C[C@@H](NC(=O)Nc2c(C)c(-c3ccc(C(=O)O)cc3)nn2-c2ccccc2)[C@H](c2ccccc2)C1` (stereo partly shown) [Compound I-207], the IC50 was less than 100 nM.

With `COCCC1C[C@@H](NC(=O)Nc2c(C)c(-c3ccc(C(=O)OC(C)(C)C)cc3)nn2-c2ccccc2)[C@H](c2ccccc2)C1` (stereo partly shown) [Compound I-206], the IC50 was less than 100 nM.

On to `CCOc1nn(-c2ccccc2)c(NC(=O)N[C@@H]2C[C@@H](CCOC)[C@H](CO)[C@H]2c2ccccc2)c1C` [Compound I-227], for which the IC50 lay within 100 to 1000 nM.

Regarding `COCC[C@@H]1C[C@@H](NC(=O)Nc2c(C)c(-c3ccc(C(=O)O)cc3)nn2-c2ccccc2)[C@H](c2ccc(F)c(F)c2)N1` [Compound I-260], the IC50 was less than 100 nM.
